Here are results for one compound from paper PMC5344125 (Nano letters, 2016).

Molecules are shown by their SMILES.

The subject of the test is LS174T secreted proteases. Kind of test: Secreted protease activity assay with conditioned supernatant. It counts as biochemical, human. The settings on record: fluorescently quenched substrates, MMP inhibitor added.

As for `CNC(=O)[C@@H](NC(=O)[C@H](CC(C)C)[C@H](O)C(=O)NO)C(C)(C)C` [Marimastat], the “in vitro proteolysis of substrates in the presence of Marimastat” value was “abrogated”.
